Data published in ChEMBL document CHEMBL1201862, “PubChem BioAssay data set” (2004).
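Growth conditions: 96-well plates. Treatment: test compound, 48 hours, 5 concentrations. Analysis: linear interpolation between bracketing concentrations; unreached endpoints set to highest concentration. The concentration for 50% growth inhibition is given as GI50.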 Active and inactive are the calls of the source. Cut-off read from the data, not from the text of the source: active = GI50 up to about 1.1 µM and inactive = higher.

Tests used:
Assay in all cases: NCI anticancer screen, dose series, 48 h
786-0 = system: 786-0
A498 = system: A498
A549 = system: A549
ACHN = system: ACHN
CAKI-1 = system: CAKI-1
CCRF-CEM = system: CCRF-CEM
COLO 205 = system: COLO 205
DLD-1 = system: DLD-1
DMS-114 = system: DMS-114
DMS-273 = system: DMS-273
EKVX = system: EKVX
HCC 2998 = system: HCC 2998
HCT-116 = system: HCT-116
HCT-15 = system: HCT-15
HL-60 = system: HL-60
HOP-18 = system: HOP-18
HOP-62 = system: HOP-62
HOP-92 = system: HOP-92
HT-29 = system: HT-29
IGROV-1 = system: IGROV-1
K562 = system: K562
KM-20L2 = system: KM-20L2
KM12 = system: KM12
LOX IMVI = system: LOX IMVI
LXFL 529 = system: LXFL 529
M14 = system: M14
M19-MEL = system: M19-MEL
MOLT-4 = system: MOLT-4
Malme-3M = system: Malme-3M
NCI-H226 = system: NCI-H226
NCI-H23 = system: NCI-H23
NCI-H460 = system: NCI-H460
NCI-H522 = system: NCI-H522
OVCAR-3 = system: OVCAR-3
OVCAR-4 = system: OVCAR-4
OVCAR-5 = system: OVCAR-5
OVCAR-8 = system: OVCAR-8
RPMI-8226 = system: RPMI-8226
RXF 393 = system: RXF 393
RXF 631 = system: RXF 631
SF-268 = system: SF-268
SF-295 = system: SF-295
SF-539 = system: SF-539
SK-MEL-28 = system: SK-MEL-28
SK-MEL-2 = system: SK-MEL-2
SK-MEL-5 = system: SK-MEL-5
SK-OV-3 = system: SK-OV-3
SN12C = system: SN12C
SNB-19 = system: SNB-19
SNB-75 = system: SNB-75
SNB-78 = system: SNB-78
SR = system: SR
SW-620 = system: SW-620
TK-10 = system: TK-10
U-251 = system: U-251
UACC-257 = system: UACC-257
UACC-62 = system: UACC-62
UO-31 = system: UO-31
XF498 = system: XF498

With `COc1cc2c(c(OC)c1OC)-c1ccc(SC)c(=O)cc1C(CC(=O)Oc1cccc(F)c1)C2` (stereo unspecified) the GI50 (786-0) was 0.114 µM (active), the GI50 (A498) was 0.0545 µM (active) and the GI50 (A549) was 0.577 µM (active). For the same molecule, the GI50 (ACHN) was 0.243 µM (active), the GI50 (CAKI-1) was 1.35 µM (inactive) and the GI50 (CCRF-CEM) was 0.228 µM (active). For the same molecule, the GI50 (COLO 205) was 0.153 µM (active), the GI50 (DLD-1) was 0.397 µM (active) and the GI50 (DMS-114) was 0.24 µM (active). The GI50 (DMS-273) was 0.214 µM (active), the GI50 (EKVX) was 2.62 µM (inactive) and the GI50 (HCC 2998) was 0.111 µM (active). For the same molecule, the GI50 (HCT-116) was 0.321 µM (active), the GI50 (HCT-15) was 0.22 µM and the GI50 (HL-60) was 0.0906 µM (active). The GI50 (HOP-18) was > 62.2 µM (inactive), the GI50 (HOP-62) was 0.685 µM (active) and the GI50 (HOP-92) was 1.24 µM (inactive). For the same molecule, the GI50 (HT-29) was 0.184 µM (active), the GI50 (IGROV-1) was 0.787 µM (active) and the GI50 (K562) was 0.149 µM (active). The GI50 (KM-20L2) was 0.0813 µM (active), the GI50 (KM12) was 0.13 µM (active) and the GI50 (LOX IMVI) was 0.197 µM (active). The GI50 (LXFL 529) was 0.316 µM (active), the GI50 (M14) was 0.242 µM (active) and the GI50 (M19-MEL) was 0.263 µM (active). The GI50 (MOLT-4) was 0.444 µM (active), the GI50 (Malme-3M) was 0.267 µM (active) and the GI50 (NCI-H226) was 0.184 µM (active). For the same molecule, the GI50 (NCI-H23) was 0.259 µM (active), the GI50 (NCI-H460) was 0.212 µM (active) and the GI50 (NCI-H522) was 0.102 µM (active). The GI50 (OVCAR-3) was 0.0946 µM (active), the GI50 (OVCAR-4) was 2.05 µM (inactive) and the GI50 (OVCAR-5) was 4.55 µM (inactive). The GI50 (OVCAR-8) was 0.337 µM (active), the GI50 (RPMI-8226) was 0.165 µM (active) and the GI50 (RXF 393) was 0.129 µM (active). For the same molecule, the GI50 (RXF 631) was 0.115 µM (active), the GI50 (SF-268) was 0.653 µM (active) and the GI50 (SF-295) was 0.075 µM (active). For the same molecule, the GI50 (SF-539) was 0.111 µM (active), the GI50 (SK-MEL-28) was 0.621 µM (active) and the GI50 (SK-MEL-2) was 0.397 µM (active). For the same molecule, the GI50 (SK-MEL-5) was 0.411 µM (active), the GI50 (SK-OV-3) was 0.0385 µM (active) and the GI50 (SN12C) was 0.222 µM (active). The GI50 (SNB-19) was 0.667 µM (active), the GI50 (SNB-75) was 0.138 µM (active) and the GI50 (SNB-78) was 0.237 µM (active). The GI50 (SR) was 0.0542 µM (active), the GI50 (SW-620) was 0.112 µM (active) and the GI50 (TK-10) was 61.7 µM (inactive). For the same molecule, the GI50 (U-251) was 0.115 µM (active), the GI50 (UACC-257) was 14.9 µM (inactive) and the GI50 (UACC-62) was 0.111 µM (active). The GI50 (UO-31) was 0.753 µM (active) and the GI50 (XF498) was 0.344 µM (active).
In the case of `O=c1nc(N2CCCC2)nc(N2CCCC2)s1`, the GI50 (786-0) is reported as > 100 µM (inactive), the GI50 (A498) is reported as > 100 µM (inactive) and the GI50 (A549) is reported as > 100 µM (inactive). For the same molecule, the GI50 (ACHN) was > 100 µM (inactive), the GI50 (CAKI-1) was 97.9 µM (inactive) and the GI50 (CCRF-CEM) was > 100 µM (inactive). For the same molecule, the GI50 (DLD-1) was > 100 µM (inactive), the GI50 (DMS-114) was > 100 µM (inactive) and the GI50 (DMS-273) was > 100 µM (inactive). The GI50 (EKVX) was > 100 µM (inactive), the GI50 (HCC 2998) was > 100 µM (inactive) and the GI50 (HCT-116) was > 100 µM (inactive). The GI50 (HCT-15) was over 100 µM, the GI50 (HL-60) was > 100 µM (inactive) and the GI50 (HOP-18) was > 100 µM (inactive). The GI50 (HOP-62) was > 100 µM (inactive), the GI50 (HOP-92) was > 100 µM (inactive) and the GI50 (HT-29) was > 100 µM (inactive). The GI50 (IGROV-1) was > 100 µM (inactive), the GI50 (K562) was > 100 µM (inactive) and the GI50 (KM-20L2) was > 100 µM (inactive). The GI50 (KM12) was > 100 µM (inactive), the GI50 (LOX IMVI) was > 100 µM (inactive) and the GI50 (LXFL 529) was > 100 µM (inactive). The GI50 (M14) was > 100 µM (inactive), the GI50 (M19-MEL) was > 100 µM (inactive) and the GI50 (MOLT-4) was > 100 µM (inactive). For the same molecule, the GI50 (Malme-3M) was > 100 µM (inactive), the GI50 (NCI-H226) was 7.21 µM (inactive) and the GI50 (NCI-H23) was > 100 µM (inactive). The GI50 (NCI-H460) was > 100 µM (inactive), the GI50 (NCI-H522) was > 100 µM (inactive) and the GI50 (OVCAR-4) was > 100 µM (inactive). For the same molecule, the GI50 (OVCAR-5) was > 100 µM (inactive), the GI50 (OVCAR-8) was > 100 µM (inactive) and the GI50 (RPMI-8226) was > 100 µM (inactive). The GI50 (RXF 393) was > 100 µM (inactive), the GI50 (RXF 631) was > 100 µM (inactive) and the GI50 (SF-268) was > 100 µM (inactive). For the same molecule, the GI50 (SF-295) was > 100 µM (inactive), the GI50 (SF-539) was > 100 µM (inactive) and the GI50 (SK-MEL-28) was > 100 µM (inactive). The GI50 (SK-MEL-2) was > 100 µM (inactive), the GI50 (SK-MEL-5) was > 100 µM (inactive) and the GI50 (SK-OV-3) was > 100 µM (inactive). The GI50 (SN12C) was > 100 µM (inactive), the GI50 (SNB-19) was > 100 µM (inactive) and the GI50 (SNB-75) was > 100 µM (inactive). For the same molecule, the GI50 (SNB-78) was > 100 µM (inactive), the GI50 (SR) was > 100 µM (inactive) and the GI50 (SW-620) was > 100 µM (inactive). For the same molecule, the GI50 (TK-10) was > 100 µM (inactive), the GI50 (U-251) was > 100 µM (inactive) and the GI50 (UACC-257) was > 100 µM (inactive). The GI50 (UACC-62) was > 100 µM (inactive), the GI50 (UO-31) was 78.7 µM (inactive) and the GI50 (XF498) was > 100 µM (inactive).
